We go through 21 molecules from ChEMBL document CHEMBL1811889, “Quinoline-4-methyl esters as human nonpancreatic secretory phospholipase A₂ inhibitors” (Bioorg Med Chem, 2011).

Molecules are shown by their SMILES.

For one test, the target named is T1, Phospholipase A2, membrane associated (Homo sapiens, UniProt P14555).
T1 sequence (P14555 whole entry): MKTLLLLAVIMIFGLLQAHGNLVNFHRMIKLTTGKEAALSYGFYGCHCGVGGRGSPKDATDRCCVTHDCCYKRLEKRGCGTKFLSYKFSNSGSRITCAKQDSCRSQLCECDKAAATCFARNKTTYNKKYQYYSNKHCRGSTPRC
Kind of test: Inhibition of human non-pancreatic sPLA2 using 1,2-dimyristoyl-sn-glycero-3-phosphocholine substrate after 5 mins by continuous fluorescence assay.
Details: not given; call rule not given here
The term IC50 denotes the concentration needed to halve the response being measured. `COC(=O)c1c2c(nc3ccccc13)CCCC2`: the concentration for half-maximal inhibition (IC50) result is recorded as “Not Active”.

In the case of `CCCCCCOc1ccc(-c2cc(C(=O)OC)c3cc(OC)ccc3n2)cc1`, the IC50 result was “Not Active”.

`COC(=O)c1c2c(nc3ccc(Cl)cc13)CCCC2`: the IC50 entry was “Not Active”.

On to `COC(=O)c1c2c(nc3ccc(F)cc13)CCCC2`, for which the IC50 entry was “Not Active”.

Turning to `CCCCCOc1ccc(-c2cc(C(=O)OC)c3cc(OC)ccc3n2)cc1`, the IC50 result is recorded as “Not Active”.

Staying with this test, now noted: read-out: IC50.
In the case of `CCCOc1ccc(-c2cc(C(=O)OC)c3cc(OC)ccc3n2)cc1`, the IC50 amounted to 27 µM.

Turning to `COC(=O)c1c(Cc2ccccc2)c(C)nc2ccc(OC)cc12`, the IC50 turned out to be 34 µM.

As to `COC(=O)c1cc(-c2ccc(OC)cc2)nc2ccc(F)cc12`, the IC50 came to 6 µM.

For `CCCCOc1ccc(-c2cc(C(=O)OC)c3cc(OC)ccc3n2)cc1`, the half-maximal inhibitory concentration (IC50) was 57 µM.

Regarding `COC(=O)c1c(Cc2ccccc2)c(C)nc2ccc(F)cc12`, the IC50 turned out to be 16 µM.

Take `COC(=O)c1cc(CCc2ccccc2)nc2ccc(F)cc12`: the IC50 turned out to be 12 µM.

As for `COc1ccc2c(c1)c(CC(N)=O)c(C)n2Cc1ccccc1`, the IC50 is 1 µM.

Turning to `COC(=O)c1cc(-c2ccc(OC)cc2)nc2ccc(Cl)cc12`, the half-maximal inhibitory concentration (IC50) turned out to be 8.1 µM.

Take `COC(=O)c1cc(Cc2ccccc2OC)nc2ccc(F)cc12`: the IC50 stood at 2.3 µM.

`COC(=O)c1cc(CCc2ccccc2)nc2ccc(OC)cc12`: the IC50 amounted to 1.5 µM.

For the molecule `COC(=O)c1cc(-c2ccccc2)nc2ccc(OC)cc12`, the IC50 is 2 µM.

In the case of `COC(=O)c1c(-c2ccccc2)c(C)nc2ccc(Cl)cc12`, the IC50 worked out at 2.9 µM.

Take `COC(=O)c1cc(-c2ccc(OC)cc2)nc2ccc(OC)cc12`: the IC50 was determined as 15 µM.

On to `COC(=O)c1cc(CCc2ccccc2)nc2ccc(Cl)cc12`, for which the IC50 was determined as 1.8 µM.

For the molecule `CCCCOc1ccc(-c2cc(C(=O)OC)c3ccccc3n2)cc1`, the IC50 stood at 44 µM.

As for `COC(=O)c1c(Cc2ccccc2)c(C)nc2ccc(Cl)cc12`, the half-inhibitory concentration (IC50) was determined as 2.8 µM.
